Measurements reported in publication PMC9829398 (Plant Biotechnology Journal, 2022).
pIC50, pKd: −log10 of the molar value. Where two headings read alike, the source gives them in different places.

How the values were obtained:
Ralstonia solanacearum [1] = type: in vivo, tobacco; conditions: roots pretreated twice with 3 mL of 5 μM
[2] = system: Arabidopsis Col‐0 and fer‐4 seedlings; test: Growth of Arabidopsis seedlings (root length, shoot fresh weight); conditions: 5 μM for 3 days, vs ddH2O (mock) and lapatinib
[3] = system: FER cytoplasmic domain (FER‐CD); test: FER-CD kinase activity (autophosphorylation), high-throughput screening, Kinase-Lumi luminescent ATP consumption; type: biochemical, Arabidopsis thaliana; conditions: in vitro autophosphorylation
FRK1 = conditions: 5 μM for 24 h, confocal microscopy
PKC = system: PKC; parameters: method as in Omura et al., [2018]; conditions: ref Omura et al., [2018]; cited from earlier work
[4] = system: ROS in Col‐0 and fer‐4 roots; test: ROS detection in plant roots (H2DCF-DA fluorescence); conditions: 5 μM for 15 min, vs DMSO and lapatinib
Meloidogyne incognita [5] = test: Rice root-knot nematode disease, preventive root treatment; type: in vivo; conditions: in vivo
PKA = system: PKA; parameters: method as in Omura et al., [2018]; conditions: ref Omura et al., [2018]; cited from earlier work
Ralstonia solanacearum [6] = type: in vivo, tomato; conditions: roots pretreated twice with 3 mL of 5 μM
PER5 = conditions: 5 μM for 24 h, confocal microscopy
Meloidogyne incognita [7] = test: Established rice root-knot nematode disease (inhibitor applied after inoculation); type: in vivo; conditions: in vivo
tobacco = test: Growth of tobacco (shoot and root fresh weight, Day 25); conditions: 5 μM irrigated twice
Ralstonia solanacearum [8] = type: in vivo, tobacco; conditions: 5 μM irrigated twice two days after inoculation
Ralstonia solanacearum [9] = type: in vivo; conditions: Arabidopsis seedlings pretreated with 5 μM, 4 days after inoculation
FER‐CD [10] = target: T1, FER‐CD (Arabidopsis thaliana, UniProt Q9SCZ4); conditions: read-out: Equilibrium dissociation constant (KD) of binding to FER-CD; MST, 25°C, 100 nM labelled FER-CD, means ± SEs (n = 3)
FER‐CD [11] = target: T1, FER‐CD; test: biochemical
ANJEA‐CD = test: ANJEA-CD kinase activity (autophosphorylation); type: biochemical, Arabidopsis thaliana; conditions: 5 μM
THE1‐CD = test: THE1-CD kinase activity (autophosphorylation); type: biochemical, Arabidopsis thaliana; conditions: 5 μM
HERK1‐CD = test: HERK1-CD kinase activity (autophosphorylation); type: biochemical, Arabidopsis thaliana; conditions: 5 μM
NtFER‐CD = test: NtFER-CD kinase activity (autophosphorylation); type: biochemical, Nicotiana tabacum; conditions: tobacco FER homologue

T1 sequence (Q9SCZ4 469-895): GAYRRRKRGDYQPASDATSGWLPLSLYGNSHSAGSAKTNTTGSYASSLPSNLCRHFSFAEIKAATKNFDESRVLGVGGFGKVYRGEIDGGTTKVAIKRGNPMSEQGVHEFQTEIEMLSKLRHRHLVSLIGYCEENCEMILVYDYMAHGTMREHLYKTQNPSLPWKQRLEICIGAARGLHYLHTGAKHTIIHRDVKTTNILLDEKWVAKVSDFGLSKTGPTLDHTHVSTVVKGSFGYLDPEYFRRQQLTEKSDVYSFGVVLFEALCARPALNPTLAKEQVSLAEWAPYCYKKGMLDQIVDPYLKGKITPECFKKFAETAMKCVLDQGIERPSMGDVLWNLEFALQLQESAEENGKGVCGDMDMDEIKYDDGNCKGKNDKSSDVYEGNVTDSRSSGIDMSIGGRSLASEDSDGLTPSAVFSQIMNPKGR

Compound: CN[C@@H]1C[C@H]2O[C@@](C)([C@@H]1OC)n1c3ccccc3c3c4c(c5c6ccccc6n2c5c31)C(=O)NC4 [Staurosporine]
- Control of tobacco bacterial wilt (Ralstonia solanacearum [1]): alleviated soil‐borne diseases
- Growth of roots and shoots of Arabidopsis Col-0 seedlings [2]: severely inhibited root and shoot growth
- Effect on FER kinase activity [3]: inhibited the kinase activity of FER
- Expression of FRK1 in roots (FRK1): observably enhanced the expression of FRK1
- Root cell morphology (FRK1): caused expansion of the root cells
- Production of ROS in Col-0 roots [4]: significantly increased the production of ROS
- Control of rice root-knot nematode disease (Meloidogyne incognita [5]): alleviated soil‐borne diseases
- Control of tomato bacterial wilt (Ralstonia solanacearum [6]): alleviated soil‐borne diseases
- Expression of PER5 in roots (PER5): elevated the expression of PER5 to a certain extent
- Effect on established rice root-knot nematode disease (Meloidogyne incognita [7]): could not completely prevent the occurrence of the diseases or cure already diseased plants
- Growth (biomass) of tobacco shoots and roots (tobacco): did not observably affect the biomass
- Effect on established tobacco bacterial wilt (Ralstonia solanacearum [8]): could not completely prevent the occurrence of the diseases or cure already diseased plants
- Cotyledon bleaching caused by R. solanacearum (Ralstonia solanacearum [9]): effectively prevented the cotyledon bleaching

Compound: Nc1ncnc2c1ncn2[C@@H]1O[C@H](COP(=O)(O)OP(=O)(O)OP(=O)(O)O)[C@@H](O)[C@H]1O [ATP]
- pKd (FER‐CD [10]): 4.74

Compound: Cc1cc(Nc2ncc(F)c(NC3C4C=CC(C4)C3C(N)=O)n2)ccc1N1CCN(C)CC1 (stereo not drawn) [Cenisertib]
- pKd (FER‐CD [11]): 5.71
- Effect on FER kinase activity [3]: inhibited the kinase activity of FER
- Inhibition rate of ANJEA-CD kinase activity (ANJEA‐CD): higher than 88%
- Expression of FRK1 in roots (FRK1): increased the expression of FRK1
- Production of ROS in Col-0 roots [4]: had no effect on ROS levels
- Inhibition rate of THE1-CD kinase activity (THE1‐CD): higher than 88%
- Inhibition rate of HERK1-CD kinase activity (HERK1‐CD): higher than 88%
- Expression of PER5 in roots (PER5): did not affect the expression of PER5
- Cotyledon bleaching caused by R. solanacearum (Ralstonia solanacearum [9]): turned white

Compound: CS(=O)(=O)CCNCc1ccc(-c2ccc3ncnc(Nc4ccc(OCc5cccc(F)c5)c(Cl)c4)c3c2)o1 [lapatinib]
- Effect on FER kinase activity [3]: did not affect FER kinase activity
- Expression of FRK1 in roots (FRK1): did not affect the expression levels
- Expression of PER5 in roots (PER5): did not affect the expression levels
- Inhibitory effect on NtFER-CD kinase activity (NtFER‐CD): ineffective
- Cotyledon bleaching caused by R. solanacearum (Ralstonia solanacearum [9]): turned white
